From ChEMBL document CHEMBL1201862, “PubChem BioAssay data set” (2004)
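Grown in 96-well plates, cells were treated for 48 hours with each compound at five concentrations. Insufficient inhibition: endpoint recorded as highest concentration tested. GI50 = concentration required for 50% inhibition of growth.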 The source made the active and inactive calls. Cut-off read from the data, not from the text of the source: active = GI50 up to about 1.1 µM and inactive = higher.

Assays:
Assay in all cases: NCI-60 cell line screen, 48 h
HCT-116 = tested on: HCT-116
SNB-19 = tested on: SNB-19
SF-539 = tested on: SF-539
OVCAR-8 = tested on: OVCAR-8
IGROV-1 = tested on: IGROV-1
TK-10 = tested on: TK-10
M14 = tested on: M14
NCI-H460 = tested on: NCI-H460
RXF 393 = tested on: RXF 393
RPMI-8226 = tested on: RPMI-8226
SW-620 = tested on: SW-620
SK-MEL-2 = tested on: SK-MEL-2
COLO 205 = tested on: COLO 205
NCI-H522 = tested on: NCI-H522
CAKI-1 = tested on: CAKI-1

Row | Structure (SMILES) | GI50 (HCT-116) | GI50 (SNB-19) | GI50 (SF-539) | GI50 (OVCAR-8) | GI50 (IGROV-1) | GI50 (TK-10) | GI50 (M14) | GI50 (NCI-H460) | GI50 (RXF 393) | GI50 (RPMI-8226) | GI50 (SW-620) | GI50 (SK-MEL-2) | GI50 (COLO 205) | GI50 (NCI-H522) | GI50 (CAKI-1)
1 | Nc1nc(N)c(N=O)c(Nc2ccc(I)cc2)n1 | 14.3 µM (inactive) | 30.1 µM (inactive) | 25.5 µM (inactive) | 29.4 µM (inactive) | 3.94 µM (inactive) | 31 µM (inactive) | 12.4 µM (inactive) | 27.5 µM (inactive) | 17.9 µM (inactive) | 20.9 µM (inactive) | 30 µM (inactive) | 15.3 µM (inactive) | 18.6 µM (inactive) | 12.1 µM (inactive) | –
2 | COC(=O)C(=O)C(C#N)c1ccc(Cl)c(Cl)c1 (centres undefined) | > 100 µM (inactive) | – | > 100 µM (inactive) | – | > 100 µM (inactive) | > 100 µM (inactive) | > 100 µM (inactive) | – | – | > 100 µM (inactive) | > 100 µM (inactive) | > 100 µM (inactive) | – | > 100 µM (inactive) | > 100 µM (inactive)
3 | Cc1ccc(NC(=O)c2nc(S)nc(N)c2-c2ccccc2C)cc1C | > 100 µM (inactive) | > 100 µM (inactive) | > 100 µM (inactive) | > 100 µM (inactive) | > 100 µM (inactive) | > 100 µM (inactive) | > 100 µM (inactive) | > 100 µM (inactive) | > 100 µM (inactive) | > 100 µM (inactive) | > 100 µM (inactive) | > 100 µM (inactive) | > 100 µM (inactive) | > 100 µM (inactive) | > 100 µM (inactive)
4 | Cn1c(=O)c(C2c3ccccc3Oc3c2c(=O)n(C)c2ccccc32)c(O)c2ccccc21 (centres undefined) | 43.2 µM (inactive) | 44.4 µM (inactive) | 76.2 µM (inactive) | > 100 µM (inactive) | 59.2 µM (inactive) | 33.3 µM (inactive) | 60 µM (inactive) | > 100 µM (inactive) | 63 µM (inactive) | 38.5 µM (inactive) | 43.9 µM (inactive) | 61.7 µM (inactive) | 30.6 µM (inactive) | 24.3 µM (inactive) | 46.9 µM (inactive)
5 | CC1CCC23COC(=O)C2C(O)CCC3C1(C)CC(O)c1ccoc1 (centres undefined) | > 100 µM (inactive) | > 100 µM (inactive) | > 100 µM (inactive) | > 100 µM (inactive) | > 100 µM (inactive) | > 100 µM (inactive) | > 100 µM (inactive) | > 100 µM (inactive) | > 100 µM (inactive) | – | > 100 µM (inactive) | > 100 µM (inactive) | > 100 µM (inactive) | > 100 µM (inactive) | –
6 | N#CC1([N+](=O)[O-])C=C1c1ccccc1 (centres undefined) | 32.4 µM (inactive) | > 100 µM (inactive) | > 100 µM (inactive) | > 100 µM (inactive) | > 100 µM (inactive) | > 100 µM (inactive) | 42.6 µM (inactive) | 51.2 µM (inactive) | – | 19.5 µM (inactive) | 19.9 µM (inactive) | > 100 µM (inactive) | > 100 µM (inactive) | 23.4 µM (inactive) | 82.4 µM (inactive)
7 | Cc1nc(=O)n2c(C)n[nH]c2c1C(=O)Nc1cc(Cl)cc(Cl)c1 | 27.5 µM (inactive) | – | 21.8 µM (inactive) | 45.5 µM (inactive) | 24.5 µM (inactive) | 19.8 µM (inactive) | 35.6 µM (inactive) | 26.9 µM (inactive) | 11.9 µM (inactive) | 9.91 µM (inactive) | 41.5 µM (inactive) | – | 26.7 µM (inactive) | 6.01 µM (inactive) | 36.9 µM (inactive)
8 | COc1cccc2c1C(=O)c1c(O)c3c(c(O)c1C2=O)C[C@@](O)(C(=O)CO)CC3OC1CC(N(C)CCOCC(OC(C)=O)OC(C)=O)C(O)C(C)O1 (some centres undefined) | – | > 0.01 µM (active) | > 0.01 µM (active) | > 0.01 µM (active) | > 0.01 µM (active) | > 0.01 µM (active) | > 0.01 µM (active) | > 0.01 µM (active) | > 0.01 µM (active) | > 0.01 µM (active) | > 0.01 µM (active) | > 0.01 µM (active) | – | > 0.01 µM (active) | > 0.01 µM (active)
9 | O=C(CC(=O)N1N=C(n2ccc3ccccc32)CC1c1ccccc1)Nc1ccc(Cl)cc1 (centres undefined) | > 100 µM (inactive) | > 100 µM (inactive) | 8.75 µM (inactive) | > 100 µM (inactive) | > 100 µM (inactive) | > 100 µM (inactive) | > 100 µM (inactive) | > 100 µM (inactive) | > 100 µM (inactive) | 52.1 µM (inactive) | > 100 µM (inactive) | > 100 µM (inactive) | > 100 µM (inactive) | > 100 µM (inactive) | –
10 | c1ccc2c(c1)CCc1c(-c3ccncc3)n[nH]c1-2 | 22.2 µM (inactive) | 27.7 µM (inactive) | 24.8 µM (inactive) | 29.4 µM (inactive) | 26.4 µM (inactive) | 29.8 µM (inactive) | 22.8 µM (inactive) | 32.1 µM (inactive) | – | 26.5 µM (inactive) | 39.7 µM (inactive) | 17.9 µM (inactive) | 25.7 µM (inactive) | > 10 µM (inactive) | 19.8 µM (inactive)
11 | CCCCCCCCCc1cc(=O)c2ccc(OCc3ccccc3)cc2o1 | 71.3 µM (inactive) | > 100 µM (inactive) | 90.8 µM (inactive) | > 100 µM (inactive) | > 100 µM (inactive) | 65.5 µM (inactive) | > 100 µM (inactive) | 64.4 µM (inactive) | 96.2 µM (inactive) | – | > 100 µM (inactive) | 43.1 µM (inactive) | > 100 µM (inactive) | > 100 µM (inactive) | 2.92 µM (inactive)
12 | NC(CCSCC(F)(F)F)C(=O)O (centres undefined) | > 100 µM (inactive) | > 100 µM (inactive) | > 100 µM (inactive) | > 100 µM (inactive) | > 100 µM (inactive) | > 100 µM (inactive) | > 100 µM (inactive) | > 100 µM (inactive) | > 100 µM (inactive) | – | > 100 µM (inactive) | – | > 100 µM (inactive) | > 100 µM (inactive) | > 100 µM (inactive)
13 | O=C(CC(=O)c1ccccc1)C(=O)Nc1ccc(Cl)cc1 | > 42.8 µM (inactive) | > 100 µM (inactive) | > 100 µM (inactive) | > 100 µM (inactive) | > 100 µM (inactive) | > 100 µM (inactive) | > 100 µM (inactive) | > 39.5 µM (inactive) | > 100 µM (inactive) | > 100 µM (inactive) | > 42.8 µM (inactive) | > 100 µM (inactive) | > 46.2 µM (inactive) | 97.9 µM (inactive) | > 100 µM (inactive)
14 | O=C(/C=C/c1ccccc1F)c1ccc(Cl)c(Cl)c1 | 16.3 µM (inactive) | > 58.6 µM (inactive) | 30 µM (inactive) | 33 µM (inactive) | 34.3 µM (inactive) | > 100 µM (inactive) | 32.4 µM (inactive) | > 71.1 µM (inactive) | 21.9 µM (inactive) | 27.7 µM (inactive) | 29.3 µM (inactive) | > 75 µM (inactive) | 75.3 µM (inactive) | 23.2 µM (inactive) | 38.8 µM (inactive)
15 | OCCC1(O)CCC(O)CC1 (centres undefined) | > 100 µM (inactive) | > 100 µM (inactive) | > 100 µM (inactive) | > 100 µM (inactive) | > 100 µM (inactive) | > 100 µM (inactive) | > 100 µM (inactive) | > 100 µM (inactive) | – | > 100 µM (inactive) | > 100 µM (inactive) | > 100 µM (inactive) | > 100 µM (inactive) | > 100 µM (inactive) | –
16 | O=C1C(O)=C(CCCc2ccc(Oc3ccccc3)cc2)C(=O)c2ccccc21 | 3.7 µM (inactive) | 7.46 µM (inactive) | 6.46 µM (inactive) | 7.76 µM (inactive) | 6.19 µM (inactive) | 18.4 µM (inactive) | 10.5 µM (inactive) | 10.4 µM (inactive) | 14.4 µM (inactive) | 5.52 µM (inactive) | 8.63 µM (inactive) | 10.2 µM (inactive) | 17.7 µM (inactive) | 6.49 µM (inactive) | 21.2 µM (inactive)
17 | COc1cc2cc3c4c(cc(OC)c(OC)c4c2cc1OC)CCN3C(=O)N(C)C | > 100 µM (inactive) | > 100 µM (inactive) | 34.5 µM (inactive) | > 100 µM (inactive) | > 100 µM (inactive) | > 10 µM (inactive) | > 10 µM (inactive) | 87.7 µM (inactive) | > 100 µM (inactive) | 82.6 µM (inactive) | > 100 µM (inactive) | > 100 µM (inactive) | > 100 µM (inactive) | 29.9 µM (inactive) | 34.8 µM (inactive)
18 | CC(O)(c1ccc(OCCC[N+](C)(C)C)cc1)C(C)(O)c1ccc(OCCC[N+](C)(C)C)cc1 (centres undefined) | > 100 µM (inactive) | > 100 µM (inactive) | > 100 µM (inactive) | > 100 µM (inactive) | > 100 µM (inactive) | – | > 100 µM (inactive) | > 100 µM (inactive) | > 100 µM (inactive) | – | > 100 µM (inactive) | > 100 µM (inactive) | > 100 µM (inactive) | > 100 µM (inactive) | > 100 µM (inactive)
19 | CC(C)(C)c1cc(CCC(=O)Nc2ccc(Cl)cc2Cl)nc(N)n1 | > 100 µM (inactive) | > 100 µM (inactive) | > 100 µM (inactive) | > 100 µM (inactive) | > 100 µM (inactive) | – | > 100 µM (inactive) | > 100 µM (inactive) | > 100 µM (inactive) | – | > 100 µM (inactive) | > 100 µM (inactive) | > 100 µM (inactive) | – | > 100 µM (inactive)
20 | COc1cc(C2c3cc4c(cc3[C@@H](N(C)C)[C@H]3COC(=O)C23)OCO4)cc(OC)c1O (some centres undefined) | 38 µM (inactive) | – | 21 µM (inactive) | 25.5 µM (inactive) | 72.1 µM (inactive) | > 100 µM (inactive) | 31 µM (inactive) | 31.2 µM (inactive) | 86.7 µM (inactive) | 92.3 µM (inactive) | 38.1 µM (inactive) | 33.4 µM (inactive) | 39.4 µM (inactive) | 4.4 µM (inactive) | 23.7 µM (inactive)
